Test results from publication PMC12389170, “N-Degron-Based PROTAC Targeting PLK1: A Potential Therapeutic Strategy for Cervical Cancer” (Pharmaceutics, 2025).
Non-standard residues stand in square brackets, D forms with d. Residues, ends and D or L forms follow the SMILES beside them. No end group written: not given here. *: point of attachment. n‑octylphenyl = n-octylphenyl group on the histidine (alkylphenyl side chain at His); His(π-(CH2)8Ph) = N[C@@H](Cc1cncn1CCCCCCCCc1ccccc1)C(=O)O; pT = C[C@@H](OP(=O)(O)O)[C@H](N)C(=O)O; Cbz = O=C(OCc1ccccc1)*; Ahx = NCCCCCC(=O)O

What was measured:
cervical carcinoma = conditions: advanced or recurrent cervical carcinoma, limited owing to chemoresistance; cited from earlier work
Description: According to the WHO, cervical cancer was the fourth most common cancer among women globally in 2022, with an estimated 660,000 new cases. Cervical cancer remains a considerable health threat, with 94% of the 350,000 deaths occurring in low- and middle-income countries. Chemotherapy, particularly cisplatin, is the primary treatment for advanced or recurrent cervical carcinoma. However, the response rate is limited to approximately 23% owing to chemoresistance. In addition, carboplatin, another platinum-based chemotherapy, is often used as an alternative for patients intolerant to c ...

PLK1 PBD = molecular target: T1, PLK1 PBD (Mus musculus, UniProt Q07832); assay: Isothermal titration calorimetry (ITC) of PLK1 PBD with NC1; conditions: 25 °C, PLK1 PBD 20 µM in cell, NC1 200 µM in syringe, 20 mM HEPES pH 7.5, 200 mM NaCl, 5% DMSO, one-site model, read-out: Kd, binding affinity between NC1 and PLK1 PBD
T1 construct: (Swiss Prot entry Q07832, residues 367–603); 6XHis (N); TEV protease cleavage site (N); made in house; pET28a vector and IPTG induction point to E. coli (inferred)
Method: The mouse PLK1 in Polo box domain (PBD) (Swiss Prot entry Q07832, residues 367–603) was expressed as a recombinant protein containing an N-terminal 6XHis tag in the pET28a vector and a tobacco etch virus (TEV) protease cleavage was engineered between the affinity tag and PLK1 PBD. PLK1 PBD protein expression was induced by adding 0.1 mM IPTG and incubating the cells overnight at 18 °C. Following induction, the cells were collected by centrifugation and lysed via sonication after being resuspended in buffer composed of 20 mM HEPES (pH 7.5), 200 mM NaCl, 2 mM β-mercaptoethanol, and 1 mM PMSF. The lysate was clarified by centrifugation at 18,000 rpm for 40 min at 4 °C. The resulting supernatant was subjected to immobilized metal affinity chromatography (IMAC) using a Ni^2+-NTA HiTrap column (GE Healthcare), and the protein was eluted using an imidazole gradient ranging from 25 to 500 mM. For further purification, size-exclusion chromatography was conducted on a HiLoad 26/60 Superdex-75 column equilibrated with 20 mM HEPES (pH 7.2), 150 mM NaCl, and 2 mM DTT. PLK1 PBD protein was purified the purity of the proteins at each stage was checked on 15% SDS-PAGE. The purified PLK1 PBD protein was concentrated to 10 mg/mL using a VIVASPIN20 (Sartorius, Göttingen, Germany) concentrator and stored at −80 °C until use. […]

[1] = system: HeLa xenograft cervical cancer; assay: In vivo antitumor activity, HeLa xenograft mouse model; conditions: nude mice, 4 mg/kg tail vein every 3-4 d for 29 d, n = 4
Method: The antitumor efficacy of NC1 was assessed in a HeLa xenograft mouse model, as reported. Briefly, 5 × 10^6 HeLa cells were subcutaneously injected into the right thigh region of immunodeficient nude mice. When tumors reached an approximate volume of 100 mm^3 (calculated using the formula: volume = 0.52 × length × width^2), mice were randomly assigned to treatment groups. NC1 (4 mg/kg) or PBS (vehicle control) was administered via tail vein injection at intervals of 3–4 days over a period of 29 days. Tumor volumes were measured regularly using calipers. All animal procedures were approved by the KBSI Institutional Animal Care and Use Committee (Protocol No. KBSI-IACUC-24-15) and were conducted in accordance with institutional and governmental regulations.

HeLa cells [2] = system: HeLa cells
HeLa cells [3] = assay: Morphological assessment by phase contrast microscopy; format: cell-based; conditions: 6 µM, 30 h
HeLa cells [4] = assay: G2/M phase cell cycle arrest by flow cytometry (PI); format: cell-based; conditions: 6 µM, 24 h
Method: HeLa cells (3.5 × 10^5 cells/well) were seeded into 6-well plates and grown to 80–90% confluence. […] Both medium and floating cells were collected, washed with PBS three times, and fixed in 70% cold ethanol. Further, cells were washed again with PBS and stained with a solution containing PI (1 µg/mL) and RNase A (1 µg/mL) at 37 °C for 30 min. The stained cells were analyzed using a CytoFLEX flow cytometer (Beckman Coulter, Brea, CA, USA), and data were processed with FlowJo v10.10 [10].

HeLa cells [5] = assay: Fluorescence apoptosis assay (LIVE/DEAD kit); format: cell-based; conditions: 6 µM, 24 h, LIVE/DEAD staining
PLK1 = molecular target: T2, PLK1 (Homo sapiens, UniProt P53350); assay: PLK1 protein degradation in HeLa cells by immunoblotting; format: cell-based; conditions: NC1 24 h, 5 µM MG132 for 8 h
T2 construct: cells were lysed and total proteins were extracted for immunoblot analysis of PLK1 expression; endogenous in cells; host or cells: HeLa
Method: HeLa cells were seeded in 12-well plates with 1 × 10^5 cells per well and allowed to stay for overnight. Various concentrations (0, 1, 2, 3, 4, and 5 µM) of NC1 were added to HeLa cells in 12-well plates and incubated for 24 h. An amount of 5 µM of MG132 was added to the cells and incubated for 8 h to evaluate the proteasome inhibition. before harvesting. Following treatment, cells were lysed and total proteins were extracted for immunoblot analysis of PLK1 expression. Protein samples were separated by SDS-PAGE and transferred onto PVDF membranes. PLK1 was detected using a mouse-derived monoclonal antibody, with β-actin used as an internal control to ensure equal loading.

[6] = molecular target: T3, NC1 (Arg12-Ahx-PLH(n-octylphenyl)SpT PROTAC peptide) (synthetic construct); assay: ITC
T3 chain: RRRRRRRRRRRR[Ahx]PLH(n‑octylphenyl)S[pT]-NH2

T2 sequence (P53350 whole entry): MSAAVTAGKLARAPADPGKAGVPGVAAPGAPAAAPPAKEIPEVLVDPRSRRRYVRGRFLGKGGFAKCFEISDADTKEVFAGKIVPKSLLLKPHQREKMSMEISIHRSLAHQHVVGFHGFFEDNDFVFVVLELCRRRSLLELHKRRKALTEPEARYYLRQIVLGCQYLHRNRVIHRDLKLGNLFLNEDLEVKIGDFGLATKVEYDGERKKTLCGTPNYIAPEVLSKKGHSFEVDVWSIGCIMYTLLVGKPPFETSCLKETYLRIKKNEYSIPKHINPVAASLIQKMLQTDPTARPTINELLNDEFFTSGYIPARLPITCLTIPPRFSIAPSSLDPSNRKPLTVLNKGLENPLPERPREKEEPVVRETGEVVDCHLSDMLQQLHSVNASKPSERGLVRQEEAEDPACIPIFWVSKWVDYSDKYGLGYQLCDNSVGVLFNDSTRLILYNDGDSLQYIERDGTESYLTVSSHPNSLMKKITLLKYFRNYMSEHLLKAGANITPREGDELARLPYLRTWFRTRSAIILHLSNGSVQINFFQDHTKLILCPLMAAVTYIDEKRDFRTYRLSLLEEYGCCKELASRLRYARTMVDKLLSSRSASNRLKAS

## N.N.[Cl][Pt][Cl] [cisplatin]
Cervical carcinoma
  Response rate: approximately 23%

## CC(C)C[C@H](NC(=O)[C@@H]1CCCN1C(=O)CCCCCNC(=O)[C@H](CCCNC(=N)N)NC(=O)[C@H](CCCNC(=N)N)NC(=O)[C@H](CCCNC(=N)N)NC(=O)[C@H](CCCNC(=N)N)NC(=O)[C@H](CCCNC(=N)N)NC(=O)[C@H](CCCNC(=N)N)NC(=O)[C@H](CCCNC(=N)N)NC(=O)[C@H](CCCNC(=N)N)NC(=O)[C@H](CCCNC(=N)N)NC(=O)[C@H](CCCNC(=N)N)NC(=O)[C@H](CCCNC(=N)N)NC(=O)[C@@H](N)CCCNC(=N)N)C(=O)N[C@@H](Cc1cncn1CCCCCCCCc1ccccc1)C(=O)N[C@@H](CO)C(=O)N[C@H](C(N)=O)[C@@H](C)OP(=O)(O)O [NC1] (H-RRRRRRRRRRRR[Ahx]PL[His(π-(CH2)8Ph)]S[pT]-NH2)
PLK1 PBD
  Kd: 6.06 µM
[1]
  Body weight of tumor-bearing mice: remained constant
HeLa cells [2]; read-out: IC50 for cancer cell viability, MTT, 24 h
  IC50: 5.23 µM

## PLH(n-octylphenyl)SpT [4j]
HeLa cells [3]
  Morphological changes of HeLa cells: did not induce notable morphological changes
HeLa cells [4]
  G1 cell population: 75.88
  G2/M cell population: 14.68
  Increase in G2/M cell population compared with the control: 2.38%
  S cell population: 5.47
  SubG1 cell population: 3.97
HeLa cells [5]
  Apoptotic (dead, red) cells in fluorescence images: few apoptotic red cells
HeLa cells [2]; MTT, 24 h, up to 12 µM
  Effect on cell viability: did not significantly affect cell viability

## CC(C)C[C@@H](C=O)NC(=O)[C@H](CC(C)C)NC(=O)[C@H](CC(C)C)NC(=O)OCc1ccccc1 [MG132] (Cbz-Leu-Leu-Leu-aldehyde)
PLK1
  Effect of proteasome inhibitor co-treatment on NC1-induced PLK1 degradation: significantly reduced degradation

B1: PLK1 367-603 (protein)
chain: NEAIECHLSDLLQQLTSVNASKPSERGLVRQEEAEDPACIPIFWVSKWVDYSDKYGLGYQLCDNSVGVLFNDSTRLILYNDGDSLQYIERDGTESYLTVSSHPNSLMKKITLLNYFRNYMSEHLLKAGANITPREGDELARLPYLRTWFRTRSAIILHLSNGTVQINFFQDHTKLILCPLMAAVTYINEKRDFQTYRLSLLEEYGCCKELASRLRYARTMVDKLLSSRSASNRLKAS
[6]
  Kd: 6.06 µM
